# Tested on: DU-145 multicell spheroids with HUVEC/MSC, viability
# Assay: Anticancer human tumor DU-145 cell line growth inhibition [IpAb];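 further: spheroids exposed to agents for seven days before measurement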;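 on viability, T/C: percent of DMSO vehicle control viability so 100% = untreated level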
# Conditions: for IC50: curve of first compound; for viability, T/C: stronger effect = lower value
# Outline: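 Multi-cell spheroids of 60% tumour cells, 25% HUVEC and 15% MSC in ultra-low-attachment U-bottom wells, treated with agents combined with ipatasertib or abemaciclib. Half-log ranges top out near clinical Cmax, or 10 microM when Cmax is unknown.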
# [1] = second compound 0.01 µM, first compound 0.00949 µM
# [2] = second compound 0.01 µM, first compound 0.03 µM
# [3] = second compound 0.01 µM, first compound 0.0949 µM
# [4] = second compound 0.01 µM, first compound 0.3 µM
# [5] = second compound 0.0316 µM, first compound 0.00949 µM
# [6] = second compound 0.0316 µM, first compound 0.03 µM
# [7] = second compound 0.0316 µM, first compound 0.0949 µM
# [8] = second compound 0.0316 µM, first compound 0.3 µM
# [9] = second compound 0.1 µM, first compound 0.00949 µM
# [10] = second compound 0.1 µM, first compound 0.03 µM
# [11] = second compound 0.1 µM, first compound 0.0949 µM
# [12] = second compound 0.1 µM, first compound 0.3 µM
# [13] = second compound 0.316 µM, first compound 0.00949 µM
# [14] = second compound 0.316 µM, first compound 0.03 µM
# [15] = second compound 0.316 µM, first compound 0.0949 µM
# [16] = second compound 0.316 µM, first compound 0.3 µM
# [17] = second compound 1 µM, first compound 0.00949 µM
# [18] = second compound 1 µM, first compound 0.03 µM
# [19] = second compound 1 µM, first compound 0.0949 µM
# [20] = second compound 1 µM, first compound 0.3 µM
# [21] = second compound 0.01 µM, first compound 0.0316 µM
# [22] = second compound 0.01 µM, first compound 0.1 µM
# [23] = second compound 0.01 µM, first compound 0.316 µM
# [24] = second compound 0.01 µM, first compound 1 µM
# [25] = second compound 0.0316 µM, first compound 0.0316 µM
# [26] = second compound 0.0316 µM, first compound 0.1 µM
# [27] = second compound 0.0316 µM, first compound 0.316 µM
# [28] = second compound 0.0316 µM, first compound 1 µM
# [29] = second compound 0.1 µM, first compound 0.0316 µM
# [30] = second compound 0.1 µM, first compound 0.1 µM
# [31] = second compound 0.1 µM, first compound 0.316 µM
# [32] = second compound 0.1 µM, first compound 1 µM
# [33] = second compound 0.316 µM, first compound 0.0316 µM
# [34] = second compound 0.316 µM, first compound 0.1 µM
# [35] = second compound 0.316 µM, first compound 0.316 µM
# [36] = second compound 0.316 µM, first compound 1 µM
# [37] = second compound 1 µM, first compound 0.0316 µM
# [38] = second compound 1 µM, first compound 0.1 µM
# [39] = second compound 1 µM, first compound 0.316 µM
# [40] = second compound 1 µM, first compound 1 µM
# [41] = second compound 0.01 µM, first compound 3.16 µM
# [42] = second compound 0.01 µM, first compound 10 µM
# [43] = second compound 0.0316 µM, first compound 3.16 µM
# [44] = second compound 0.0316 µM, first compound 10 µM
# [45] = second compound 0.1 µM, first compound 3.16 µM
# [46] = second compound 0.1 µM, first compound 10 µM
# [47] = second compound 0.316 µM, first compound 3.16 µM
# [48] = second compound 0.316 µM, first compound 10 µM
# [49] = second compound 1 µM, first compound 3.16 µM
# [50] = second compound 1 µM, first compound 10 µM
smiles,measurement,setting,value
CC(=O)c1c(C)c2cnc(Nc3ccc(N4CCNCC4)cn3)nc2n(C2CCCC2)c1=O + CCN1CCN(Cc2ccc(Nc3ncc(F)c(-c4cc(F)c5nc(C)n(C(C)C)c5c4)n3)nc2)CC1,IC50,second compound 0.01 µM,> 0.3 µM
same,IC50,second compound 0.0316 µM,> 0.3 µM
same,IC50,second compound 0.1 µM,> 0.3 µM
same,IC50,second compound 0.316 µM,> 0.3 µM
same,IC50,second compound 1 µM,> 0.3 µM
same,"viability, T/C","second compound 0.01 µM, first compound 0.000949 µM",88.5%
same,"viability, T/C","second compound 0.01 µM, first compound 0.003 µM",90.5%
same,"viability, T/C",[1],87.2%
same,"viability, T/C",[2],90.4%
same,"viability, T/C",[3],90.2%
same,"viability, T/C",[4],84.8%
same,"viability, T/C","second compound 0.0316 µM, first compound 0.000949 µM",93.7%
same,"viability, T/C","second compound 0.0316 µM, first compound 0.003 µM",84.9%
same,"viability, T/C",[5],90%
same,"viability, T/C",[6],85.4%
same,"viability, T/C",[7],83.4%
same,"viability, T/C",[8],80.9%
same,"viability, T/C","second compound 0.1 µM, first compound 0.000949 µM",78.6%
same,"viability, T/C","second compound 0.1 µM, first compound 0.003 µM",76.9%
same,"viability, T/C",[9],77.9%
same,"viability, T/C",[10],76.9%
same,"viability, T/C",[11],73.4%
same,"viability, T/C",[12],76.7%
same,"viability, T/C","second compound 0.316 µM, first compound 0.000949 µM",74.5%
same,"viability, T/C","second compound 0.316 µM, first compound 0.003 µM",72%
same,"viability, T/C",[13],75.5%
same,"viability, T/C",[14],75%
same,"viability, T/C",[15],71.3%
same,"viability, T/C",[16],66.6%
same,"viability, T/C","second compound 1 µM, first compound 0.000949 µM",58.9%
same,"viability, T/C","second compound 1 µM, first compound 0.003 µM",61.2%
same,"viability, T/C",[17],61.6%
same,"viability, T/C",[18],60.4%
same,"viability, T/C",[19],58%
same,"viability, T/C",[20],60.2%
CC(C)(C)c1cnc(CSc2cnc(NC(=O)C3CCNCC3)s2)o1 + CCN1CCN(Cc2ccc(Nc3ncc(F)c(-c4cc(F)c5nc(C)n(C(C)C)c5c4)n3)nc2)CC1,IC50,second compound 0.01 µM,0.104 µM
same,IC50,second compound 0.0316 µM,0.0822 µM
same,IC50,second compound 0.1 µM,0.0666 µM
same,IC50,second compound 0.316 µM,0.0604 µM
same,IC50,second compound 1 µM,0.0349 µM
same,"viability, T/C",[1],108%
same,"viability, T/C",[2],98.6%
same,"viability, T/C",[3],54%
same,"viability, T/C",[4],8.61%
same,"viability, T/C","second compound 0.01 µM, first compound 0.949 µM",6.08%
same,"viability, T/C","second compound 0.01 µM, first compound 3 µM",5.15%
same,"viability, T/C",[5],94.3%
same,"viability, T/C",[6],88.2%
same,"viability, T/C",[7],44.7%
same,"viability, T/C",[8],8.69%
same,"viability, T/C","second compound 0.0316 µM, first compound 0.949 µM",5.54%
same,"viability, T/C","second compound 0.0316 µM, first compound 3 µM",5.3%
same,"viability, T/C",[9],87.6%
same,"viability, T/C",[10],77.4%
same,"viability, T/C",[11],38.1%
same,"viability, T/C",[12],7.33%
same,"viability, T/C","second compound 0.1 µM, first compound 0.949 µM",5.93%
same,"viability, T/C","second compound 0.1 µM, first compound 3 µM",4.44%
same,"viability, T/C",[13],77.5%
same,"viability, T/C",[14],75.4%
same,"viability, T/C",[15],33.8%
same,"viability, T/C",[16],7.83%
same,"viability, T/C","second compound 0.316 µM, first compound 0.949 µM",5.35%
same,"viability, T/C","second compound 0.316 µM, first compound 3 µM",4.86%
same,"viability, T/C",[17],67.8%
same,"viability, T/C",[18],55.7%
same,"viability, T/C",[19],12.7%
same,"viability, T/C",[20],6.89%
same,"viability, T/C","second compound 1 µM, first compound 0.949 µM",4.71%
same,"viability, T/C","second compound 1 µM, first compound 3 µM",4.63%
COc1c(OCCCN2CCOCC2)ccc2c3n(c(=NC(=O)c4cnc(N)nc4)nc12)CCN3 + CCN1CCN(Cc2ccc(Nc3ncc(F)c(-c4cc(F)c5nc(C)n(C(C)C)c5c4)n3)nc2)CC1,IC50,second compound 0.01 µM,0.00799 µM
same,IC50,second compound 0.0316 µM,0.00614 µM
same,IC50,second compound 0.1 µM,0.00488 µM
same,IC50,second compound 0.316 µM,0.00436 µM
same,IC50,second compound 1 µM,0.00494 µM
same,"viability, T/C","second compound 0.01 µM, first compound 0.00316 µM",79.2%
same,"viability, T/C","second compound 0.01 µM, first compound 0.01 µM",41.3%
same,"viability, T/C",[21],28%
same,"viability, T/C",[22],15.2%
same,"viability, T/C",[23],9.78%
same,"viability, T/C",[24],11.9%
same,"viability, T/C","second compound 0.0316 µM, first compound 0.00316 µM",62.9%
same,"viability, T/C","second compound 0.0316 µM, first compound 0.01 µM",39.9%
same,"viability, T/C",[25],25.3%
same,"viability, T/C",[26],13.5%
same,"viability, T/C",[27],9.95%
same,"viability, T/C",[28],11.3%
same,"viability, T/C","second compound 0.1 µM, first compound 0.00316 µM",57.1%
same,"viability, T/C","second compound 0.1 µM, first compound 0.01 µM",38%
same,"viability, T/C",[29],23.4%
same,"viability, T/C",[30],14.2%
same,"viability, T/C",[31],10.9%
same,"viability, T/C",[32],11.5%
same,"viability, T/C","second compound 0.316 µM, first compound 0.00316 µM",53.6%
same,"viability, T/C","second compound 0.316 µM, first compound 0.01 µM",40.4%
same,"viability, T/C",[33],29.7%
same,"viability, T/C",[34],17.7%
same,"viability, T/C",[35],13.5%
same,"viability, T/C",[36],14%
same,"viability, T/C","second compound 1 µM, first compound 0.00316 µM",54.4%
same,"viability, T/C","second compound 1 µM, first compound 0.01 µM",42.8%
same,"viability, T/C",[37],32.9%
same,"viability, T/C",[38],25.7%
same,"viability, T/C",[39],19.7%
same,"viability, T/C",[40],20.8%
Cc1nc(NC(=O)N2CCCC2C(N)=O)sc1-c1ccnc(C(C)(C)C(F)(F)F)c1 (stereo not given) + CCN1CCN(Cc2ccc(Nc3ncc(F)c(-c4cc(F)c5nc(C)n(C(C)C)c5c4)n3)nc2)CC1,IC50,second compound 0.01 µM,0.186 µM
same,IC50,second compound 0.0316 µM,0.116 µM
same,IC50,second compound 0.1 µM,0.0973 µM
same,IC50,second compound 0.316 µM,0.0941 µM
same,IC50,second compound 1 µM,0.168 µM
same,"viability, T/C",[21],75.3%
same,"viability, T/C",[22],59.4%
same,"viability, T/C",[23],39.9%
same,"viability, T/C",[24],31.5%
same,"viability, T/C",[41],19.4%
same,"viability, T/C",[42],9.2%
same,"viability, T/C",[25],73.5%
same,"viability, T/C",[26],45.8%
same,"viability, T/C",[27],38%
same,"viability, T/C",[28],29.5%
same,"viability, T/C",[43],19.2%
same,"viability, T/C",[44],8.68%
same,"viability, T/C",[29],67.1%
same,"viability, T/C",[30],49.2%
same,"viability, T/C",[31],33.8%
same,"viability, T/C",[32],28.6%
same,"viability, T/C",[45],20.5%
same,"viability, T/C",[46],11%
same,"viability, T/C",[33],61%
same,"viability, T/C",[34],49.7%
same,"viability, T/C",[35],36.8%
same,"viability, T/C",[36],32.4%
same,"viability, T/C",[47],24.1%
same,"viability, T/C",[48],16%
same,"viability, T/C",[37],58.1%
same,"viability, T/C",[38],55%
same,"viability, T/C",[39],43.8%
same,"viability, T/C",[40],39%
same,"viability, T/C",[49],28.4%
same,"viability, T/C",[50],21.5%
Cn1nccc1Nc1nccc(-c2ccn(C(CO)c3ccc(Cl)c(F)c3)c(=O)c2)n1 (stereo not given) + CCN1CCN(Cc2ccc(Nc3ncc(F)c(-c4cc(F)c5nc(C)n(C(C)C)c5c4)n3)nc2)CC1,IC50,second compound 0.01 µM,> 10 µM
same,IC50,second compound 0.0316 µM,7.22 µM
same,IC50,second compound 0.1 µM,> 10 µM
same,IC50,second compound 0.316 µM,> 10 µM
same,IC50,second compound 1 µM,> 10 µM
same,"viability, T/C",[21],86.9%
same,"viability, T/C",[22],68.4%
same,"viability, T/C",[23],71%
same,"viability, T/C",[24],85.6%
same,"viability, T/C",[41],103%
same,"viability, T/C",[42],82.1%
same,"viability, T/C",[25],85.4%
same,"viability, T/C",[26],64.7%
same,"viability, T/C",[27],69.8%
same,"viability, T/C",[28],82.5%
same,"viability, T/C",[43],105%
same,"viability, T/C",[44],37.7%
same,"viability, T/C",[29],65.2%
same,"viability, T/C",[30],60.4%
same,"viability, T/C",[31],63.5%
same,"viability, T/C",[32],75.1%
same,"viability, T/C",[45],92.6%
same,"viability, T/C",[46],53.6%
same,"viability, T/C",[33],67.1%
same,"viability, T/C",[34],60.7%
same,"viability, T/C",[35],61.9%
same,"viability, T/C",[36],77%
same,"viability, T/C",[47],79.1%
same,"viability, T/C",[48],54.8%
same,"viability, T/C",[37],66.4%
same,"viability, T/C",[38],68.2%
same,"viability, T/C",[39],61.5%
same,"viability, T/C",[40],73.5%
same,"viability, T/C",[49],90.2%
same,"viability, T/C",[50],64.3%
